Patent publication US5206232A, “Fungicidal imidazole complexes” (priority 1990, dated 1993)

Experiments:
powdery mildew = experiment: Fungicidal activity against powdery mildew on inoculated cucumber plants (disease index); type: in vivo, Sphaerotheca fuliginia; conditions: cucumbers, letters in the cell = significance groups (P = 0.05)
Protocol: Cucumbers sensitive to powdery mildew were sprouted in trays and then transferred to pots of 16 cm diameter, two plants per pot. They were kept in a hot-house at 18° C.-25° C. at a relative humidity of 60%-70%. The cucumber plants were contaminated with powdery mildew collected from pumpkin leaves by passing the contaminated leaf over the leaves of the plants to be tested and the plants then sprayed with water. First treatment was with the first appearance of the disease, by spraying until dripping. All treatments were at a concentration of 0.03%, except for the commercial Myclobutanal (a systemic fungicide of Rohm and Haas Co.), where a concentration of 0.006% was used. The status of the disease was determined by three different people. The experiment was conducted in blocks, at random, with repetitions. Four blocks of four repetitions of ten treatments (total 160 pots) at three evaluation periods.

coffee berry disease = experiment: Activity against coffee berry disease (inhibition of sporulation on colonized branch sections); type: in vivo, Colletotrichum coffeanum; conditions: for Per Cent Active Ingredient for 80% Inhibition: 80% inhibition of sporulation, by linear regression of dose response curves, three days incubation
Protocol: The zinc complex of prochloraz was tested for its activity against coffee berry disease as follows:
Approximately 3.5 mm sections of colonized branches are washed in a solution of Teepol or similar wetting agent to remove any initial spore load. Sections are laid on moistened cellosine wadding in plastic boxes, 12 sections per box. Three boxes are sprayed with each concentration of the candidate material, closed and incubated for three days. After incubation the spores are removed by vigorous shaking of each of the 12 twigs in 10 ml water and are counted, using a haemocytometer slide. The sections of the branch are measured and their volume taken by displacement. The parameters measured were concentration of the formulation and expressed as percent active ingredient (A.I.) and percent inhibition of sporulation. The inhibition of sporulation was expressed in relation to the sporulation of unsprayed control and folpet as the standard fungicide. Each determination was done in triplicate and repeated at least three times. The dose response curves were analyzed by linear regression and the different formulations were compared at the 80% inhibition point.

crops = conditions: free, non-complexed prochloraz vs metal complexes; susceptible crops; cited from earlier work
[1] = 0.006% spray (commercial standard), key 0 = clean to 5 = over 50% sick
[2] = 0.03% spray, key 0 = clean, 1 = 10%-20% sick, 2 = 20%-30%, 3 = 30%-40%, 4 = 40%-50%, 5 = over 50% sick

| Compound | Per Cent Active Ingredient for 80% Inhibition (coffee berry disease) | Disease Index 14 Days After Treatment (powdery mildew; [2]) | Disease Index 7 Days After Treatment (powdery mildew; [2]) | further results |
| --- | --- | --- | --- | --- |
| CCCCC(C#N)(Cn1cncn1)c1ccc(Cl)cc1 (racemic) [Myclobutanol, reference compound] | – | – | – | Disease Index 7 Days After Treatment (powdery mildew; [1]): 1.34; Disease Index 14 Days After Treatment (powdery mildew; [1]): 0.81 |
| O=C1c2ccccc2C(=O)N1SC(Cl)(Cl)Cl [Folpet, reference compound] | 0.62 Per Cent Active Ingredient | – | – | – |
| CCCN(CCOc1c(Cl)cc(Cl)cc1Cl)C(=O)n1ccnc1.CCCN(CCOc1c(Cl)cc(Cl)cc1Cl)C(=O)n1ccnc1.[Cl][Sn][Cl] [SnCl2 complex of Prochloraz, Bis-[1-{N-propyl-N-2-(2,4,6-trichlorophenoxy)-ethyl-carbamoyl}-imidazole]-tin(II) chloride complex] | – | 0.78 | – | – |
| CCCN(CCOc1c(Cl)cc(Cl)cc1Cl)C(=O)n1ccnc1.CCCN(CCOc1c(Cl)cc(Cl)cc1Cl)C(=O)n1ccnc1.[Cl][Zn][Cl] [ZnCl2 complex of Prochloraz, Bis-[1-{N-propyl-N-2-(2,4,6-trichlorophenoxy)-ethyl-carbamoyl}-imidazole]-zinc chloride complex] | 0.09 Per Cent Active Ingredient | 0.94 | 1.63 | activity against coffee berry disease (in words) (coffee berry disease; especially as compared to known commercial metal complexes): very good activity; activity against coffee berry disease compared to commercial "Octave" (coffee berry disease; relative to Octave, at 80% inhibition point): more than two times greater |
| CCCN(CCOc1c(Cl)cc(Cl)cc1Cl)C(=O)n1ccnc1 [prochloraz, 1-[N-propyl-N-2-(2,4,6-trichlorophenoxy)-ethyl-carbamoyl]-imidazole] | – | – | – | phytotoxicity (crops): phytotoxic to some crops |
| Bis-[1-{N-propyl-N-2-(2,4,6-trichlorophenoxy)-ethyl-carbamoyl}-imidazole]-cobalt (II) chloride complex [CoCl2 complex of Prochloraz] | – | 1.38 | 2.06 | – |
